Where a name gives a salt, the structure may show the parent alone. Read-outs that look alike come from different tables or passages of the source.
How the values were obtained:
human LSD1 [1] = target: T1, human LSD1 (Homo sapiens (Human), UniProt O60341); assay: Experiment 1A: in vitro LSD1 enzyme activity, enzyme-coupled fluorescence (HRP/Amplex Red), H3K4me peptide 20 μM (Wuhan Heyan); type: biochemical; conditions: histone H3K4me peptide 20 μM
Experimental: Experiment 1A: Evaluation of Enzyme Activity
Testing unit: Wuhan Heyan Biomedical Technology Co., Ltd.
The purpose of the assay was to test the in vitro inhibitory activity of the compounds against LSD1. The enzyme used in the assay was human LSD1, and the standard substrate was histone H3K4me peptide (20 μM). The activity of the compounds was determined by the enzyme-coupling fluorescent method by the combined detection of H2O2 generated after the reaction of LSD1 by horseradish peroxidase (HRP) and the fluorescent reagent Amplex Red. Starting from 10 μM, the compounds were 3-fold diluted to detect the IC50 values of the compounds at 10 concentrations. The enzyme and substrate were incubated for 30 minutes before the compound was added to the substrate to start the reaction. Fluorescence detector: EnVision, excitation wavelength: Ex/Em=530/590 nM.

[2] = Experiment 3: pharmacokinetic evaluation in CD-1 mice (IV and oral); type: in vivo; conditions: mouse, plasma; for clearance / half-life / Vd: IV 1 mg/kg; for clearance: read-out: Clearance rate CL; for half-life: read-out: Half life T1/2 (IV, h) (converted); for Vd: read-out: Volume of distribution at steady state Vdss; for bioavailability: PO 2 mg/kg vs IV 1 mg/kg, read-out: Bioavailability F (%); for AUC(0-t): PO 2 mg/kg, read-out: Area under drug-time curve AUC0-last PO; for Cmax: single dose, oral 2 mg/kg, read-out: Peak concentration Cmax
Experimental: Experiment 3: Pharmacokinetic Evaluation of Compounds
Experimental purpose: To test the pharmacokinetics of compounds in CD-1 mice in vivo
CD-1 mice (male/female, 7 to 9 weeks old, Shanghai SLAC)
The pharmacokinetic characteristics of the compounds in rodents after intravenous injection and oral administration were tested according to the standard protocol. In the experiment, the candidate compound was formulated into clear solutions, and a single intravenous injection and oral administration were given to mice. The vehicle for intravenous injection and oral administration was a mixed vehicle composed of 10% dimethyl sulfoxide and 90% hydroxypropyl β-cyclodextrin with a content of 10%. In this project, four male/female CD-1 mice were used. Two mice were injected intravenously at a dose of 1 mg/kg, and plasma samples were collected at 0.083, 0.25, 0.5, 1, 2, 4, 8, and 24 hours after administration; the other two were administered orally by gavage at a dose of 2 mg/kg, and plasma samples were collected at 0.25, 0.5, 1, 2, 4, 8, and 24 hours after administration. The samples were centrifuged at 3200 g for 10 minutes at 4° C., and plasma samples were obtained by separating the supernatant. A methanol solution containing internal standard with 20 times the volume of the sample was added thereto to precipitate the protein, and the mixture was centrifuged at 12000 g for 15 minutes at 4° C. 50 μL of the supernatant was taken and transferred to a 96-well plate and centrifuged again. The supernatant was taken for sampling. The plasma concentration was quantitatively analyzed using LC-MS/MS analysis method, and pharmacokinetic parameters, such as peak concentration (Cmax), clearance rate (CL), half-life (T1/2), volume of distribution at steady state (Vdss), area under drug-time curve (AUC0-last), bioavailability (F).

NCI-H1417 cells = assay: Experiment 2: inhibition of NCI-H1417 cell proliferation (CellTiter-Glo, 10 days); type: cell-based; conditions: Homo sapiens, 240 h, 10 days incubation
Outline: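 Cells at 1000 per well exposed to 10-point 3-fold dilutions from 10 μM top concentration for 10 days. Viability by CellTiter-Glo luminescence; inhibition normalized to max/min controls, IC50 from four-parameter fit.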

[3] = test system: human small cell lung cancer NCI-H1417 cell subcutaneous xenograft tumor; assay: Experiment 5: in vivo pharmacodynamic study, NCI-H1417 subcutaneous xenograft tumor in CB17-SCID mice; conditions: 10 mg/kg, p.o.; for Mean tumor volume ± SEM (mm^3) (Day 28): day 28 after administration; for TGI (%): tumor volume at day 28
Text: Experiment 5: In Vivo Pharmacodynamic Study of Compounds on CB17-SCID Mouse Model of Human Small Cell Lung Cancer NCI-H1417 Cell Subcutaneous Xenograft Tumor
The purpose of this experiment was to evaluate the in vivo efficacy of the compounds of the present disclosure on CB17-SCID mouse model of human small cell lung cancer NCI-H1417 cell subcutaneous xenograft tumor.
5.2 Experimental Animals: • Species: mice • Strain: CB17-SCID mice • Week age and weight: 6-8 weeks old, 18 to 22 grams • Gender: Female • Supplier: Beijing Vital River Laboratory Animal Technology Co., Ltd.
Human lung cancer cells NCI-H1417 were cultured in vitro in suspension in RPMI 1640 medium with 10% fetal bovine serum, 100 U/mL penicillin, and 100 μg/mL streptomycin at 37° C. in a 5% CO2 cell culture incubator. Routine digestion and passage treatment were performed twice a week. When the number of cells reached the required number, the cells were counted and resuspended in PBS at a density of 10×10^6 cells/200 μL.
0.2 mL of NCI-H1417 tumor cells (containing 10×10^6 cells) suspension (PBS: matrix gel=1:1) was subcutaneously inoculated on the right back of mice, and in pharmacodynamic experiments, on the 16th day after cell inoculation, when the average tumor volume reached 86 mm^3, the subjects were randomly grouped and the administration started.
The experimental vehicle was 5% dimethyl sulfoxide/95% (10% Solutol) solution. Preparation method: 3.8 mL of […] was taken and added to 34.2 mL of double-distilled water, 2 mL of dimethyl sulfoxide was added thereto, and the mixture was mixed well. The test substance was dissolved with the vehicle, prepared as a homogeneous solution of a certain concentration, and stored at 4° C.
The experimental indicator was to examine whether tumor growth was inhibited, delayed, or cured. The tumor diameter was measured twice a week using vernier calipers. The calculation formula of tumor volume is V=0.5a×b^2, wherein a and b represent the long and short diameters of the tumor respectively.
The tumor inhibitory efficacy of compounds was evaluated by TGI (%). TGI (%) reflects the tumor growth inhibition rate. Calculation of TGI (%): TGI (%)=[1−(Average tumor volume at the end of administration in a certain treatment group−Average tumor volume at the beginning of administration in this treatment group)/(Average tumor volume at the end of treatment in the vehicle control group−Average tumor volume at the beginning of treatment in the vehicle control group)]×100%.

human LSD1 [4] = target: T1, human LSD1; assay: Experiment 1B: in vitro LSD1 enzyme activity, enzyme-coupled fluorescence (HRP/Amplex Red), H3(1-21)K4me2 peptide 10 μM (Reaction Biology); type: biochemical; conditions: histone H3(1-21)K4me2 peptide 10 μM
Outline: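 Human LSD1 with 10 μM histone H3(1-21)K4me2 peptide; enzyme and substrate incubated 30 min before compound addition started the reaction. H2O2 detected via HRP/Amplex Red fluorescence (Ex/Em 535/590). IC50 from 10-point 3-fold dilutions starting at 10 μM.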

[5] = target: hERG potassium ion channels (Homo sapiens (Human), UniProt Q12809); assay: Experiment 4: hERG potassium ion channel inhibition, automated patch clamp (Qpatch), CHO-hERG cells; type: cell-based; conditions: highest test concentration 40 μM
Experimental: Experiment 4: hERG Potassium Ion Channel Inhibition Assay
Experimental purpose: To test the effects of the test examples on hERG potassium ion channels using an automated patch clamp method.
4.1.1 CHO-hERG cells were cultured in a 175 cm^2 culture flask. When the cell density grew from 60% to 80%, the culture medium was removed. The cells were washed once with 7 mL of PBS (Phosphate Buffered Saline), and then 3 mL of Detachin cell dissociation reagent was added thereto for digestion.
4.1.2 After the digestion was completed, 7 mL of culture medium was added thereto for neutralization, then the mixture was centrifuged, the supernatant was aspirated, and then 5 mL of culture medium was added thereto for resuspension to ensure a cell density of 2×10^6/mL to 5×10^6/ML.
The single-cell high-resistance sealing and whole-cell modeling formation processes were all automatically completed by the Qpatch instrument of the Shanghai Institute of Materia Medica, Chinese Academy of Sciences. After obtaining the whole-cell recording modeling, the cells were clamped at −80 mV, and before a 5-second +40 mV depolarizing stimulus was given, a 50-millisecond −50 mV prepulse was first given, then the voltage was repolarized to −50 mV and holden for 5 seconds, and finally returned to −80 mV. This voltage stimulus was applied every 15 seconds, recorded for 2 minutes, and then the extracellular fluid was recorded for 5 minutes, and then the administration process was initiated, with compound concentrations starting at the lowest test concentration. The voltage stimulus was given for 2.5 minutes for each test concentration, and after all concentrations had been continuously given, 3 μM the positive control compound, Cisapride, was given. At least 3 cells were tested per concentration (n≥3).
4.4.1 The compound stock solution was diluted with DMSO, and 20 μL of DMSO solution was added with 10 μL of the compound stock solution, and serially diluted 3-fold to 6 DMSO concentrations.
4.4.2 4 μL of 6 DMSO concentrations of compounds were taken respectively and added to 396 μL of extracellular fluid, and the mixture was diluted 100-fold to 6 intermediate concentrations, then 80 μL of 6 intermediate concentrations of compounds was taken and added to 320 μL of extracellular fluid, and the mixture was diluted 5-fold to the final test concentration.
4.4.3 The highest test concentration was 40 μM, and the concentrations were respectively 40, 13.3, 4.4, 1.48, 0.494, and 0.165 μM for a total of six concentrations.
4.4.5 The preparation of the compound was completed by the Bravo instrument throughout the dilution process.
Experimental data were analyzed by GraphPad Prism 5.0 software.

Sequence of hERG potassium ion channels (Q12809 whole entry): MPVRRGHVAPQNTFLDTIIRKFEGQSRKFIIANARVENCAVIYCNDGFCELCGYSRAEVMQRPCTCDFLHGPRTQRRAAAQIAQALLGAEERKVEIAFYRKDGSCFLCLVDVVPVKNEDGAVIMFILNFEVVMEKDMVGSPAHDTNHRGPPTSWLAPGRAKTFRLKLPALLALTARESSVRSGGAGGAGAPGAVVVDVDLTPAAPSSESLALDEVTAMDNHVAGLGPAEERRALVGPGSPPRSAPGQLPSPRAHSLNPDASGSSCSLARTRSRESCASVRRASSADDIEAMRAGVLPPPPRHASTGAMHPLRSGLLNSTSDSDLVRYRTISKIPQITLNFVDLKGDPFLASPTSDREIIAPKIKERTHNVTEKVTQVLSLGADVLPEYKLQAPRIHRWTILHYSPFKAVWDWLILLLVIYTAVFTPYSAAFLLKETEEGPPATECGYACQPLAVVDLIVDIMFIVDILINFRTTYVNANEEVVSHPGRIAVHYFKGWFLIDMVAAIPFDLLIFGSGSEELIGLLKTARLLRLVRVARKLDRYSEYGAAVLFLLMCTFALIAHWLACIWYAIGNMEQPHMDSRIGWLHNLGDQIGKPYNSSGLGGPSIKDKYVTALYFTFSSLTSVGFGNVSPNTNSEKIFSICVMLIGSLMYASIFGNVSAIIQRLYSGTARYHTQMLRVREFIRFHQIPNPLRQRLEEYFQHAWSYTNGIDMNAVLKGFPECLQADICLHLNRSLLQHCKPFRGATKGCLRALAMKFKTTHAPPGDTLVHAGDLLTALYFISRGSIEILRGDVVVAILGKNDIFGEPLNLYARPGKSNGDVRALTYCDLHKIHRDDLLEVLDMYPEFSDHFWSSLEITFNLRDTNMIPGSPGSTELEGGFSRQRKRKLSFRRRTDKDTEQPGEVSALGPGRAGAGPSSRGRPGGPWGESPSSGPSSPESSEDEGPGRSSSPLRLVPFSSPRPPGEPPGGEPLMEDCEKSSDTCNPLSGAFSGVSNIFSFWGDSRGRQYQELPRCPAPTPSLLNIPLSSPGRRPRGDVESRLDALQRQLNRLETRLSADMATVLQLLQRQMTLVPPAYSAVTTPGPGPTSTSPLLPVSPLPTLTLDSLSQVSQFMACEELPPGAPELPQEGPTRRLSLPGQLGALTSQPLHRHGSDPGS

| SMILES | IC50 (human LSD1 [1]) [nM] | clearance ([2]; female CD-1 mice) [mL/min/kg] | half-life ([2]; female CD-1 mice) [h] | Vd ([2]; female CD-1 mice) [L/kg] | bioavailability ([2]; female CD-1 mice) [%] | AUC(0-t) ([2]; female CD-1 mice) [µM·h] | Cmax ([2]; female CD-1 mice) [nM] | IC50 (NCI-H1417 cells) [nM] | other results |
| --- | --- | --- | --- | --- | --- | --- | --- | --- | --- |
| COc1ccc(-c2sc(C(=O)N3C4CCC3C(N)C4)cc2-c2ccc(C#N)c(F)c2)cc1F (racemic) [Hydrochloride of compound 2] | 122 | 19.6 | 5.23 | 7.9 | 47.7 | 1.43 | 209 | 1.75 | – |
| COc1ccc(-c2sc(C(=O)N3CCC[C@@H](N)C3)cc2-c2ccc(C#N)c(F)c2)cc1F [Hydrochloride of compound 1] | 82 | 17.8 | 5.59 | 7.66 | 47.2 | 1.56 | 245 | 6.88 | clearance ([2]; male CD-1 mice): 16.7 mL/min/kg; half-life ([2]; male CD-1 mice): 6.13 h; Vd ([2]; male CD-1 mice): 8.33 L/kg; bioavailability ([2]; male CD-1 mice): 53.9%; AUC(0-t) ([2]; male CD-1 mice): 2.24 µM·h; Cmax ([2]; male CD-1 mice): 176 nM |
| COc1ccc(-c2sc(C(=O)N3CCC(N)CC3)cc2-c2ccc(C#N)c(F)c2)cc1F [Hydrochloride of compound 4] | 110 | – | – | – | – | – | – | 30.1 | – |
| COc1ccc(-c2sc(C(=O)N3CCNCC3)cc2-c2ccc(C#N)c(F)c2)cc1F [Hydrochloride of compound 5] | 345 | – | – | – | – | – | – | – | – |
| COc1ccc(-c2sc(C(=O)N3CCCNCC3)cc2-c2ccc(C#N)c(F)c2)cc1F [Hydrochloride of compound 6] | 112 | 18 | 5.37 | 7.76 | 64 | 2.52 | 222 | 37.9 | – |
| COc1ccc(-c2sc(C(=O)N3CCCC[C@@H](N)C3)cc2-c2ccc(C#N)c(F)c2)cc1F [Hydrochloride of compound 8] | 120 | – | – | – | – | – | – | 8.73 | – |
| COc1ccc(-c2sc(C(=O)N3CC4CNCC4C3)cc2-c2ccc(C#N)c(F)c2)cc1F (stereo not shown) [Hydrochloride of compound 9] | 118 | – | – | – | – | – | – | 15.8 | – |
| COc1ccc(-c2sc(C(=O)N3CCC4(CCNC4)CC3)cc2-c2ccc(C#N)c(F)c2)cc1F [Hydrochloride of compound 10] | 192 | – | – | – | – | – | – | 22.4 | – |
| COc1ccc(-c2sc(C(=O)N3CC[C@@H](N)C3)cc2-c2ccc(C#N)c(F)c2)cc1F [Hydrochloride of compound 12] | 393 | – | – | – | – | – | – | – | – |
| COc1ccc(-c2sc(C(=O)NC3CC4CCC3N4)cc2-c2ccc(C#N)c(F)c2)cc1F (stereo not shown) [Hydrochloride of compound 15] | 310 | – | – | – | – | – | – | – | – |
| Cn1cc2cc(-c3sc(C(=O)N4CCC[C@@H](N)C4)cc3-c3ccc(C#N)c(F)c3)ccc2n1 [Hydrochloride of compound 36] | – | 37.3 | 2.01 | 4.71 | 49.6 | 0.971 | 224 | 1.17 | Mean tumor volume ± SEM (mm^3) (Day 28) ([3]; BID): 53 ± 3 mm^3; TGI (%) ([3]; BID): 109.13%; Mean tumor volume ± SEM (mm^3) (Day 28) ([3]; QD): 87 ± 11 mm^3; TGI (%) ([3]; QD): 99.65%; clearance ([2]; male CD-1 mice): 31.5 mL/min/kg; half-life ([2]; male CD-1 mice): 2.1 h; Vd ([2]; male CD-1 mice): 4.47 L/kg; bioavailability ([2]; male CD-1 mice): 33.9%; AUC(0-t) ([2]; male CD-1 mice): 0.742 µM·h; Cmax ([2]; male CD-1 mice): 148 nM; IC50 (human LSD1 [4]): 3.44 nM |
| CN[C@@H]1CCCN(C(=O)c2cc(-c3ccc(C#N)c(F)c3)c(-c3ccc4c(c3)nnn4CC(C)(C)O)s2)C1 [Hydrochloride of compound 121] | – | – | – | – | – | – | – | 7.7 | Mean tumor volume ± SEM (mm^3) (Day 28) ([3]; QD): 75 ± 4 mm^3; TGI (%) ([3]; QD): 103.19%; IC50 (human LSD1 [4]): 14.3 nM; IC50 [5]: 20500 nM |

Source: patent publication US20240199571A1, “THIOPHENE COMPOUND AND APPLICATION THEREOF” (MEDSHINE DISCOVERY INC., priority 2021, published 2024)
